Test results taken from US10342766B2, “6-shogaol derivatives and activities thereof” (North Carolina Agricultural and Technical State University, priority 2017, dated 2019).
Several values for one entry are separate records, joined by “and”; a condition that tells them apart may be missing. Equal values may be shown once. Blank lines part the entries; values can stand above or below the compound they belong to.

What was measured:
Nrf2 = Nrf2 reporter activity by Tg(gstp1:GFP) fluorescence in transgenic zebrafish embryos; type: in vivo; conditions: 24-hour treatment from 1 dpf to 2 dpf; for Ratio/CTL, Tg(gstp1:GFP) fluorescence signal: 5 μM, olfactory epithelia, relative to vehicle (DMSO = 1.00)
Protocol: Zebrafish AB transgenic strains Tg(gstp1:GFP) were maintained in a Pentair Aquatic Ecosystem (Apopka, Fla., United States of America) fish housing unit with 14 h light/10 h dark cycle (see Tsujita, T., Li, L., Nakajima, H., Iwamoto, N., Nakajima-Takagi, Y., Ohashi, K., Kawakami, K., Kumagai, Y., Freeman, B. A., Yamamoto, M., and Kobayashi, M. (2011) “Nitro-fatty acids and cyclopentenone prostaglandins share strategies to activate the Keap1-Nrf2 system: a study using green fluorescent protein transgenic zebrafish.” Genes Cells 16, 46-57). The fish embryos were maintained at 28.5° C. in 0.3× Danieau's solution (19.3 mM NaCl, 0.23 mM KCl, 0.13 mM MgSO4, 0.2 mM Ca(NO3)2, 1.7 mM HEPES, pH 7.0) containing 30 μg/ml phenylthiourea (PTU) to inhibit pigmentation. Tg(gstp1:GFP) cross with AB wild-type strain fluorescence embryos were used for the experiment. Zebrafish embryos were washed, dechorionated and anaesthetized before observations, and fluorescence imaging for analysis.
Transgenic zebrafish embryos at 1 day-post-fertilization (dpf) were dechorionated and placed in Petri dishes containing different chemicals diluted in 0.3× Danieau's solution containing PTU. The chemical stock was dissolved in DMSO at 5 mM concentration.
An Olympus MVX10 Fluorescence Macroscope (Olympus, Center Valley, Pa., United States of America) equipped with a Hamamatsu C9300-221 high-speed digital CCD camera (Hamamatsu City, Japan) was used for fluorescence microscopy. Tg(gstp1:GFP) fluorescent embryos were anaesthetized in tricaine and imaged at 2 dpf. MetaMorph Basic software (Olympus, Center Valley, Pa., United States of America) was used for image acquisition and analysis.
Quantification of Nrf2 Reporter Activity by Tg(gstp1:
GFP) Fluoresence in Zebrafish Model. The fluorescence intensity of the olfactory neural epithelia was quantitated using MetaMorph Basic software. In brief, GFP expression in the olfactory regions of Tg(gstp1:GFP) embryos treated with various chemicals was measured after 24-hour treatment from 1 dpf to 2 dpf. The GFP induction was detectable by fluorescence signal at the area of the olfactory epithelia in the anterior of the head region, the intensity was measured using an area of a circle of 60 pixel diameter of the fluorescence olfactory epithelia subtracted by a background non-fluorescence area next to the zebrafish embryo. Both the left and right olfactory epithelia were measured to give an average fluorescence value. The values are an average of measurements from at least 10 embryos.

[1] = Formation of cysteine conjugates in mice (urine, LC/MS); type: in vivo, mouse; conditions: oral gavage 200 mg/kg, urine collected in 24 h
Protocol: LC/MS analysis was carried out with a Thermo-Finnigan Spectra System, which consisted of an Accela high speed MS pump, an Accela refrigerated autosampler, and an LCQ Fleet ion trap mass detector (Thermo Electron, San Jose, Calif., United States of America) incorporated with an electrospray ionization (ESI) interface. A Gemini-NX C18 column (150 mm×4.6 mm i.d., 5 μm; Phenomenex, Torrance, Calif., United States of America) was used for separation at a flow rate of 0.3 mL/min. The column was eluted with 100% A (5% aqueous methanol with 0.2% formic acid) for 1 min, followed by linear increases in B (95% aqueous methanol with 0.2% formic acid) to 55% from 1 to 4 min, to 85% from 4 to 25 min, then to 100% B from 25 to 30 min, and then with 100% B from 30 to 35 min. The column was then re-equilibrated with 100% A for 5 min. The LC eluent was introduced into the ESI interface. The positive ion polarity mode was set for the ESI source with the voltage on the ESI interface maintained at approximately 4.6 kV. Nitrogen gas was used as the sheath gas and auxiliary gas. […] The mass range was measured from 100 to 800 m/z. […]
Enzymatic deconjugation of mouse urine was performed as described previously with slight modifications. […] The resulting suspension was centrifuged at 17,000 g for 5 min, and 10 μL of supernatant was analyzed directly by LC/MS.

[2] = Biotransformation in zebrafish embryos (cysteine conjugates, LC/MS); type: in vivo; conditions: 5 μM in incubation medium, 8 hpf to 24 hpf
Protocol: Fifty zebrafish embryos at the 8 hour-post-fertilization (hpf) stage were incubated at 28.5° C. in 0.3× Danieau's solution (19.3 mM NaCl, 0.23 mM KCl, 0.13 mM MgSO4, 0.2 mM Ca(NO3)2, 1.7 mM HEPES, pH 7.0) with or without 5 μM 18 and 25-27, respectively. At 24 hpf, embryos were dechorionated manually and the chorions were carefully removed one by one from the culture medium. The zebrafish embryos were harvested and kept at −80° C. till analyzed by LC/MS.
200 μL Sodium acetate buffer solution (pH 5.0) was added to 50 zebrafish embryos. Samples were homogenized for 90 s by an Omni Bead Ruptor Homogenizer (Kennesaw, Ga., United States of America). 10 μL 10% ascorbic acid and 300 μL sodium acetate buffer were added to the homogenates. The mixture was incubated in the presence of β-glucuronidase (250 U) and sulfatase (3 U) at 37° C. for 45 min, and then 600 μL MeOH with 1% acetic acid was added. The resulting mixture was vortexed for 30 s and then centrifuged at 17000 g for 10 min. The supernatant was removed and evaporated under a gentle stream of nitrogen. The residue was reconstituted in 150 μL 90% MeOH with 0.2% acetic acid (AA), and 10 μL was analyzed directly by LC/MS.
LC/MS analysis was carried out with a Thermo-Finnigan Spectra System, which consisted of an Accela high speed MS pump, an Accela refrigerated autosampler, and an LCQ Fleet ion trap mass detector (Thermo Electron, San Jose, Calif., United States of America) incorporated with an electrospray ionization (ESI) interface. A Gemini-NX C18 column (150 mm×4.6 mm i.d., 5 μm; Phenomenex, Torrance, Calif., United States of America) was used for separation at a flow rate of 0.3 mL/min. The column was eluted with 100% A (5% aqueous methanol with 0.2% formic acid) for 1 min, followed by linear increases in B (95% aqueous methanol with 0.2% formic acid) to 55% from 1 to 4 min, to 85% from 4 to 25 min, then to 100% B from 25 to 30 min, and then with 100% B from 30 to 35 min. The column was then re-equilibrated with 100% A for 5 min. The LC eluent was introduced into the ESI interface. The positive ion polarity mode was set for the ESI source with the voltage on the ESI interface maintained at approximately 4.6 kV. Nitrogen gas was used as the sheath gas and auxiliary gas. Optimized source parameters, including capillary temperature (260° C.), sheath gas flow rate (31 arbitrary units), auxiliary gas flow rate (16 units), tube lens (34 V), and capillary voltage 9 V, were tuned using authentic samples. The collision-induced dissociation (CID) was conducted with an isolation width 2 Da and normalized collision energy of 35 for MS^2. The mass range was measured from 100 to 800 m/z. Data acquisition was performed with Xcalibur version 2.0 (Thermo Electron, San Jose, Calif., United States of America).

Structure (SMILES): CCCCCC(CC(O)CCc1ccc(O)c(OC)c1)SCC(NC(C)=O)C(=O)O (centres unmarked) [Compound 16]
Ratio/CTL, Tg(gstp1:GFP) fluorescence signal (Nrf2): 0.78 ± 0.12

Cysteine conjugates found in mouse urine [1]: conjugate 35 was predominantly present
Cysteine conjugates found in zebrafish embryos [2]: conjugate 35 was predominantly present
Structure (SMILES): CCCCC/C=C/C(=O)/C=C/c1ccc(O)c(OC)c1 [Compound 18]
Ratio/CTL, Tg(gstp1:GFP) fluorescence signal (Nrf2): 5.67 and 5.67 ± 0.59

Structure (SMILES): CCCCCC=CC(O)CCc1ccc(O)c(OC)c1 (centres unmarked) [Compound 4]
Ratio/CTL, Tg(gstp1:GFP) fluorescence signal (Nrf2): 1.13 and 1.13 ± 0.21

Structure (SMILES): CCCCC/C=C/C(=O)/C=C/c1cccc(C(F)(F)F)c1 [Compound 22]
Ratio/CTL, Tg(gstp1:GFP) fluorescence signal (Nrf2): 1.28 and 1.28 ± 0.10

Structure (SMILES): CCCCCC(CC(=O)CCc1ccc(O)c(OC)c1)SCC(NC(C)=O)C(=O)O (centres unmarked) [Compound 7]
Ratio/CTL, Tg(gstp1:GFP) fluorescence signal (Nrf2): 1.04 ± 0.05

Structure (SMILES): CCCCCC(CC(=O)CCc1ccc(O)c(OC)c1)SCC(N)C(=O)O (centres unmarked) [Compound 6]
Ratio/CTL, Tg(gstp1:GFP) fluorescence signal (Nrf2): 1.06 ± 0.20

Structure (SMILES): CCCCCCC[C@H](O)CC(=O)CCc1ccc(O)c(OC)c1 [Compound 12, reference compound]
Ratio/CTL, Tg(gstp1:GFP) fluorescence signal (Nrf2): 1.65 and 1.65 ± 0.29

Structure (SMILES): CCCCCCCC(=O)CCc1ccc(O)c(O)c1 [Compound 25]
Ratio/CTL, Tg(gstp1:GFP) fluorescence signal (Nrf2): 4.32 and 4.32 ± 0.50
Cysteine conjugates found in zebrafish embryos [2]: conjugates 37 and 37b were exclusively identified

Structure (SMILES): CCCCCC(CC(=O)CCc1ccc(O)c(OC)c1)SC (centres unmarked) [Compound 8]
Ratio/CTL, Tg(gstp1:GFP) fluorescence signal (Nrf2): 1.16 ± 0.47

Structure (SMILES): C[S+]([O-])CCCCN=C=S (centres unmarked) [SFN, sulforaphane, reference compound]
Ratio/CTL, Tg(gstp1:GFP) fluorescence signal (Nrf2): 2.03 and 2.03 ± 0.49

Structure (SMILES): CCCCCCCCC[C@H](O)CC(=O)CCc1ccc(O)c(OC)c1 [Compound 13, reference compound]
Ratio/CTL, Tg(gstp1:GFP) fluorescence signal (Nrf2): 1.29 and 1.29 ± 0.40

Structure (SMILES): CCCCC[C@H](O)CC(=O)CCc1ccc(O)c(OC)c1 [Compound 11, [6]-gingerol, reference compound]
Ratio/CTL, Tg(gstp1:GFP) fluorescence signal (Nrf2): 1.87 and 1.87 ± 0.51

Structure (SMILES): CCCCC/C=C/C(=O)/C=C/c1cccc(C(F)(F)F)c1F [Compound 23]
Ratio/CTL, Tg(gstp1:GFP) fluorescence signal (Nrf2): 1.63 and 1.63 ± 0.17

Structure (SMILES): CCCCC/C=C/C(=O)/C=C/c1ccccc1C(F)(F)F [Compound 24]
Ratio/CTL, Tg(gstp1:GFP) fluorescence signal (Nrf2): 1.55 and 1.55 ± 0.67

Structure (SMILES): CCCCCCCC(=O)CCc1ccc(O)c(OC)c1 [Compound 5]
Ratio/CTL, Tg(gstp1:GFP) fluorescence signal (Nrf2): 1.27 and 1.27 ± 0.29

Structure (SMILES): CCCCC/C=C/C(=O)/C=C/c1cc(O)c(O)c(OC)c1 [Compound 20]
Ratio/CTL, Tg(gstp1:GFP) fluorescence signal (Nrf2): 1.26 and 1.26 ± 0.14

Structure (SMILES): CCCCCCC/C=C/C(=O)CCc1ccc(O)c(OC)c1 [Compound 2, reference compound]
Ratio/CTL, Tg(gstp1:GFP) fluorescence signal (Nrf2): 1.67 ± 0.55
Ratio/CTL, Tg(gstp1:GFP) fluorescence signal (Nrf2; listed as 8S): 1.67

Structure (SMILES): CCCCCC(CC(O)CCc1ccc(O)c(OC)c1)SC (centres unmarked) [Compound 17]
Ratio/CTL, Tg(gstp1:GFP) fluorescence signal (Nrf2): 0.72 ± 0.14

Structure (SMILES): CCCCC/C=C/C(=O)/C=C/c1cc(OC)c(O)c(C(F)(F)F)c1 [Compound 21]
Ratio/CTL, Tg(gstp1:GFP) fluorescence signal (Nrf2): 2.18 and 2.18 ± 0.53

Structure (SMILES): CCCCCC(CC(=O)CCc1ccc(O)c(OC)c1)OC (centres unmarked) [Compound 10]
Ratio/CTL, Tg(gstp1:GFP) fluorescence signal (Nrf2): 0.96 ± 0.24

Structure (SMILES): CCCCCC(CC(O)CCc1ccc(O)c(OC)c1)SCC(N)C(=O)O (centres unmarked) [Compound 15]
Ratio/CTL, Tg(gstp1:GFP) fluorescence signal (Nrf2): 1.08 ± 0.65

Structure (SMILES): CCCCCCCC(=O)/C=C/c1ccc(O)c(OC)c1 [Compound 19]
Ratio/CTL, Tg(gstp1:GFP) fluorescence signal (Nrf2): 3.29 and 3.29 ± 0.35

Structure (SMILES): CCCCC/C=C/C(=O)CCc1ccc(O)c(OC)c1 [Compound 1, [6]-shogaol, reference compound]
Ratio/CTL, Tg(gstp1:GFP) fluorescence signal (Nrf2): 2.40 and 2.40 ± 0.54
Ratio/CTL, Tg(gstp1:GFP) fluorescence signal (Nrf2; listed as 6S): 2.40

Structure (SMILES): CCCCCCCCC/C=C/C(=O)CCc1ccc(O)c(OC)c1 [Compound 3, reference compound]
Ratio/CTL, Tg(gstp1:GFP) fluorescence signal (Nrf2): 1.53 ± 0.53
Ratio/CTL, Tg(gstp1:GFP) fluorescence signal (Nrf2; listed as 10S): 1.53

Structure (SMILES): CCCCCCCC(O)CCc1ccc(O)c(OC)c1 (centres unmarked) [Compound 14]
Ratio/CTL, Tg(gstp1:GFP) fluorescence signal (Nrf2): 0.96 ± 0.21
Nrf2 activation in Tg(gstp1:GFP) zebrafish embryos, in words (Nrf2): no effect at all
